Test systems include LOX IMVI melanoma; CCRF-CEM leukemia; RXF 393 renal; SK-OV-3 ovarian; RPMI-8226 leukemia; HCT-116 colon; KM12 colon; OVCAR-5 ovarian; HT29 colon; M14 melanoma.
Experiment in all cases: NCI anticancer screen, dose series, 48 h

The values below come from PubChem BioAssay (NCI).

Values joined by “and” are separate entries in the source; they are usually repeats but may differ in a detail not shown here. Equal entries are not always repeated.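 Cultured in 96-well plates, cells were exposed to test compound for 48 hours across five concentrations. GI50 = concentration required for 50% inhibition of growth. TGI: total growth inhibition.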

As for `CCC1CCc2nc3sc(C(=O)Nc4ccccc4C)c(N)c3cc2C1` (stereo not drawn), the GI50 with LOX IMVI melanoma is 0.775 µM; with CCRF-CEM leukemia it was 0.331 µM; in the assay on RXF 393 renal, 0.316 µM; in the assay on SK-OV-3 ovarian, 0.855 µM; with RPMI-8226 leukemia, 0.329 µM; in the assay with HCT-116 colon, 0.348 µM. In addition, the GI50 in the assay with KM12 colon is 0.502 µM. The TGI in the assay with LOX IMVI melanoma is > 100 µM; in the assay with CCRF-CEM leukemia, > 100 µM; in the assay on RXF 393 renal it was 40.7 µM; in the assay on SK-OV-3 ovarian, > 100 µM; in the assay on RPMI-8226 leukemia, > 100 µM; with HCT-116 colon it was > 100 µM. The TGI in the assay with KM12 colon is > 100 µM.

Turning to `COCCOCC(=O)N(CCn1ccc(NC(c2ccccc2)(c2ccccc2)c2ccccc2)nc1=O)CCn1cnc2nc(N)[nH]c(=O)c21`, the TGI with OVCAR-5 ovarian, in the assay on HT29 colon, with LOX IMVI melanoma, with CCRF-CEM leukemia, in the assay with RXF 393 renal and in the assay with RPMI-8226 leukemia was > 100 µM in each case. The TGI in the assay on HCT-116 colon, with M14 melanoma and in the assay on KM12 colon was > 100 µM throughout.

Consider `O=C1C2c3[nH]c4ccccc4c3[C@@H]3CCCCC3C2C(=O)N1c1ccccc1` (stereo partly drawn), for which the TGI stood at 51.8 µM in the assay with OVCAR-5 ovarian; 37 µM in the assay on HT29 colon; 29.8 µM in the assay with LOX IMVI melanoma; 80.1 µM in the assay with CCRF-CEM leukemia; 32.7 µM in the assay with RXF 393 renal; 72.5 µM in the assay on SK-OV-3 ovarian. Further, the figures for the TGI in the assay on RPMI-8226 leukemia, with M14 melanoma and with KM12 colon were 47.7 µM, 30 µM and 39.3 µM, respectively.

For the compound `COc1ccc(-c2c(-c3cc(OC)c4c(c3)OCO4)noc2N)cc1`, the GI50 in the assay on OVCAR-5 ovarian was 0.339 µM; in the assay with HT29 colon, 0.0353 µM; with LOX IMVI melanoma it was 0.0629 µM; in the assay with CCRF-CEM leukemia it was 0.0361 µM; in the assay on RXF 393 renal, 0.0167 µM; in the assay with SK-OV-3 ovarian it was 0.032 µM. Also, the GI50 in the assay with RPMI-8226 leukemia is 0.0511 µM; in the assay on HCT-116 colon it was 0.0438 µM; in the assay with KM12 colon, 0.0161 µM. Moreover, the TGI in the assay with OVCAR-5 ovarian is 99.3 µM; in the assay with HT29 colon it was 1.63 µM; in the assay on LOX IMVI melanoma, > 51.5 µM; in the assay on CCRF-CEM leukemia, 24.9 µM; in the assay on RXF 393 renal, 0.0627 µM; with SK-OV-3 ovarian, 1.29 µM. The results for the TGI with RPMI-8226 leukemia, with HCT-116 colon and in the assay with KM12 colon were 16.9 µM, 19.5 µM and 0.827 µM, respectively.

Regarding `COC12CC(=O)C(C(C)=O)=C(O)C1(C)c1c(OC(C)=O)c(C)c(O)c(C(C)=O)c1O2` (stereo not drawn), the TGI with OVCAR-5 ovarian is > 100 µM; with HT29 colon, 78.7 µM; in the assay on LOX IMVI melanoma it was > 100 µM; with CCRF-CEM leukemia, 66.8 µM; in the assay on RXF 393 renal, 62.5 µM; in the assay on RPMI-8226 leukemia it was > 100 µM. The TGI in the assay on HCT-116 colon, in the assay with M14 melanoma and in the assay with KM12 colon was > 100 µM in each case.

As to `Nc1nc(N)c2nc(CNc3ccc(C(=O)NC(CCCNC(=O)c4ccccc4C(=O)O)C(=O)O)cc3)cnc2n1` (stereo not drawn), the GI50 in the assay on OVCAR-5 ovarian is 0.00196 µM; in the assay with HT29 colon it was 0.00102 µM; with LOX IMVI melanoma, 0.000373 µM; in the assay on CCRF-CEM leukemia, 0.00148 µM; with HCT-116 colon, 0.00028 µM; in the assay with M14 melanoma, 0.0226 µM. Also, the GI50 in the assay with KM12 colon was < 0.01 µM and 0.00297 µM. Also, the TGI in the assay on OVCAR-5 ovarian, with HT29 colon, in the assay on LOX IMVI melanoma, in the assay with CCRF-CEM leukemia, in the assay on RXF 393 renal and with RPMI-8226 leukemia was > 100 µM each time. The TGI in the assay with HCT-116 colon, in the assay with M14 melanoma and with KM12 colon was > 100 µM throughout.

`CCOC(=O)Nc1ccc(-c2nc(-c3cccc(OC)c3)c(-c3ccnc(Br)c3)[nH]2)cc1`: the GI50 was 3.56 µM in the assay with OVCAR-5 ovarian; 3.45 µM in the assay with HT29 colon; 1.56 µM with LOX IMVI melanoma; 2.75 µM in the assay on CCRF-CEM leukemia; 0.712 µM with RXF 393 renal; 3.9 µM with SK-OV-3 ovarian. Moreover, the GI50 was 0.794 µM with RPMI-8226 leukemia, 2.4 µM with M14 melanoma and 2.51 µM in the assay on KM12 colon. The TGI in the assay on OVCAR-5 ovarian was > 100 µM; in the assay with HT29 colon it was > 100 µM; in the assay with LOX IMVI melanoma, 3.32 µM; with CCRF-CEM leukemia it was > 100 µM; with RXF 393 renal, 2.94 µM; with SK-OV-3 ovarian it was > 100 µM. Moreover, the TGI in the assay with RPMI-8226 leukemia was found to be 3.49 µM; in the assay on M14 melanoma it was 7.5 µM; in the assay with KM12 colon, 9.06 µM.

As to `CC(=O)OCC1O[C@@H]([S-])C(OC(C)=O)[C@H](OC(C)=O)[C@@H]1OC(C)=O.[Au+].c1ccc(CN2[CH-]N(Cc3ccccc3)C(c3ccccc3)=C2c2ccccc2)cc1`, the GI50 in the assay with OVCAR-5 ovarian is 1.92 µM; with LOX IMVI melanoma it was 1.9 µM; with CCRF-CEM leukemia it was 1.99 µM; in the assay on RXF 393 renal it was 1.63 µM; with SK-OV-3 ovarian, 3.39 µM; in the assay on RPMI-8226 leukemia, 1.9 µM. The figures for the GI50 in the assay with HCT-116 colon, in the assay with M14 melanoma and in the assay on KM12 colon were 1.64 µM, 1.69 µM and 2.09 µM, respectively. The TGI in the assay on OVCAR-5 ovarian is 3.96 µM; with LOX IMVI melanoma, 3.86 µM; in the assay on CCRF-CEM leukemia, 5.51 µM; in the assay with RXF 393 renal, 3.51 µM; with SK-OV-3 ovarian it was 10.2 µM; in the assay on RPMI-8226 leukemia, 4.94 µM. Also, the TGI with HCT-116 colon was 3.24 µM; in the assay on M14 melanoma, 3.58 µM; in the assay with KM12 colon it was 4.27 µM.

`N#Cc1ccc(C(c2ccc(C#N)cc2)n2cncn2)cc1`: the GI50 with OVCAR-5 ovarian is > 5000 µM; in the assay on HT29 colon, > 5000 µM; in the assay with LOX IMVI melanoma, > 5000 µM; in the assay on CCRF-CEM leukemia, > 5000 µM; with RXF 393 renal, 18.3 µM; in the assay on SK-OV-3 ovarian, > 5000 µM. The GI50 in the assay on RPMI-8226 leukemia, in the assay with M14 melanoma and in the assay with KM12 colon was > 5000 µM in each case. Moreover, the TGI with OVCAR-5 ovarian, with HT29 colon, in the assay with LOX IMVI melanoma, in the assay on CCRF-CEM leukemia, in the assay with SK-OV-3 ovarian and with RPMI-8226 leukemia was > 5000 µM each time. Moreover, the TGI with M14 melanoma and in the assay on KM12 colon was > 5000 µM in each case.
